The structures appear in SMILES notation.

The target of the experiment is T1, MAGL (Homo sapiens, UniProt Q99685).
T1 sequence (Q99685 1-303): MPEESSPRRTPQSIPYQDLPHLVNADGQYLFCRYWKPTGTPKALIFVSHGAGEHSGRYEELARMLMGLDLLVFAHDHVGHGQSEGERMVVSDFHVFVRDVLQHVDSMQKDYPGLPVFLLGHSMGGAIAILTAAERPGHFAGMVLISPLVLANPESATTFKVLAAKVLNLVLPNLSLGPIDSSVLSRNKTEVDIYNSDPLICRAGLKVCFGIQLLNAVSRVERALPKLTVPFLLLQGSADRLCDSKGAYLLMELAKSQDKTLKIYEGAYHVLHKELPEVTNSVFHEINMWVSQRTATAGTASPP
The experiment is described as follows: 2-AG assay: MAGL inhibitory activity by hydrolysis of 2-arachidonoylglycerol to arachidonic acid, followed by mass spectrometry. It counts as biochemical. Particulars: 15 min preincubation, 30 min reaction at RT, 8 μM 2-arachidonoylglycerol.
What is called IC50 is the concentration needed to halve the response being measured. `O=C1NC2(CO1)CN(C(=O)N1CC3(C1)CN(c1ncc(C(F)(F)F)cc1F)C3)C2` [Example 203, 2-[6-[3-fluoro-5-(trifluoromethyl)-2-pyridyl]-2,6-diazaspiro[3.3]heptane-2-carbonyl]-7-oxa-2,5-diazaspiro[3.4]octan-6-one] returned a 50% inhibitory concentration (IC50) of 0.0616 µM.

Regarding `O=C1NC2(CO1)CN(C(=O)N1CC3(CCN(S(=O)(=O)C45CC(C(F)(F)F)(C4)C5)CC3)C1)C2` [Example 204, 2-[7-[[3-(trifluoromethyl)-1-bicyclo[1.1.1]pentanyl]sulfonyl]-2,7-diazaspiro[3.5]nonane-2-carbonyl]-7-oxa-2,5-diazaspiro[3.4]octan-6-one], 0.0118 µM corresponded to half-maximal inhibition (IC50).

In turn, `O=C1CCC2(CN(C(=O)N3CC4(CCN(S(=O)(=O)C56CC(C(F)(F)F)(C5)C6)CC4)C3)C2)N1` [Example 205, 2-[7-[[3-(trifluoromethyl)-1-bicyclo[1.1.1]pentanyl]sulfonyl]-2,7-diazaspiro[3.5]nonane-2-carbonyl]-2,5-diazaspiro[3.4]octan-6-one] registered an IC50 of 0.265 µM.

Turning to `O=C1NC2(CO1)CN(C(=O)N1CC3(C1)CN(c1cnc(C(F)(F)F)cn1)C3)C2` [Example 206, 2-[6-[5-(trifluoromethyl)pyrazin-2-yl]-2,6-diazaspiro[3.3]heptane-2-carbonyl]-7-oxa-2,5-diazaspiro[3.4]octan-6-one], the IC50 was 0.278 µM.

In the case of `O=C1NC2(CO1)CN(C(=O)N1CC3(C1)CN(c1ncc(C(F)(F)F)cn1)C3)C2` [Example 207, 2-[6-[5-(trifluoromethyl)pyrimi-din-2-yl]-2,6-diazaspiro[3.3]heptane-2-carbonyl]-7-oxa-2,5-diazaspiro[3.4]octan-6-one], the IC50 came out at 0.414 µM.

For `O=C1COCC2(CN(C(=O)N3CC4(CC(NS(=O)(=O)c5cccc(C(F)(F)F)c5)C4)C3)C2)N1` [Example 208, N-[2-(6-oxo-8-oxa-2,5-diazaspiro[3.5]nonane-2-carbonyl)-2-azaspiro[3.3]heptan-6-yl]-3-(trifluoromethyl)benzene-sulfonamide], the 50% inhibitory concentration (IC50) was found to be 0.0671 µM.

`N#Cc1cc(C(F)(F)F)ncc1O[C@H]1CCC2(C1)CN(C(=O)N1CC3(COC(=O)N3)C1)C2` [Example 209, 5-[[(6S)-2-(6-oxo-7-oxa-2,5-diazaspiro[3.4]octane-2-carbonyl)-2-azaspiro[3.4]octan-6-yl]oxy]-2-(trifluoromethyl)pyridine-4-carbonitrile] returned an IC50 of 0.00628 µM.

`N#Cc1cc(C(F)(F)F)ncc1CC1CCC2(C1)CN(C(=O)N1CC3(COC(=O)N3)C1)C2` (centres unmarked) [Example 210, 5-[[2-(6-oxo-7-oxa-2,5-diazaspiro[3.4]octane-2-carbonyl)-2-azaspiro[3.4]octan-6-yl]methyl]-2-(trifluoromethyl)pyridine-4-carbonitrile] came in with a concentration for half-maximal inhibition (IC50) of 0.00084 µM.

On to `N#Cc1cc(C(F)(F)F)ncc1CC1CC2(C1)CN(C(=O)N1CC3(COC(=O)N3)C1)C2` [Example 211, 5-[[2-(6-oxo-7-oxa-2,5-diazaspiro[3.4]octane-2-carbonyl)-2-azaspiro[3.3]heptan-6-yl]methyl]-2-(trifluoromethyl)pyridine-4-carbonitrile], for which 0.00039 µM corresponded to half-maximal inhibition (IC50).

In turn, `N#Cc1cc(C(F)(F)F)ncc1C[C@H]1CCC2(C1)CN(C(=O)N1CC3(COC(=O)N3)C1)C2` [Example 212, 5-[[(6S)-2-(6-oxo-7-oxa-2,5-diazaspiro[3.4]octane-2-carbonyl)-2-azaspiro[3.4]octan-6-yl]methyl]-2-(trifluoromethyl)pyridine-4-carbonitrile] came in with an IC50 of 0.00046 µM.

Compound `N#Cc1cc(C(F)(F)F)ncc1C[C@@H]1CCC2(C1)CN(C(=O)N1CC3(COC(=O)N3)C1)C2` [Example 213, 5-[[(6R)-2-(6-oxo-7-oxa-2,5-diazaspiro[3.4]octane-2-carbonyl)-2-azaspiro[3.4]octan-6-yl]methyl]-2-(trifluoromethyl)pyridine-4-carbonitrile] returned a 50% inhibitory concentration (IC50) of 0.00055 µM.

`N#Cc1cc(C(F)(F)F)ncc1O[C@H]1CCC2(C1)CN(C(=O)N1CC3(COCC(=O)N3)C1)C2` [Example 214, 5-[[(6S)-2-(6-oxo-8-oxa-2,5-diazaspiro[3.5]nonane-2-carbonyl)-2-azaspiro[3.4]octan-6-yl]oxy]-2-(trifluoromethyl)pyridine-4-carbonitrile] returned an IC50 of 0.386 µM.

The compound `O=C1CCC2(CN(C(=O)N3CC4(CC(Cc5ccc(S(=O)(=O)C6CC6)cc5)C4)C3)C2)N1` [Example 215, 2-[6-[(4-cyclopropylsulfonylphe-nyl)methyl]-2-azaspiro[3.3]heptane-2-carbonyl]-2,5-diazaspiro[3.4]octan-6-one] came in with an IC50 of 0.0032 µM.

The compound `O=C1CCC2(CN(C(=O)N3CC4(CC(Cc5cnn(C(F)(F)F)c5)C4)C3)C2)N1` [Example 216, 2-[6-[[1-(trifluoromethyl)pyrazol-4-yl]methyl]-2-azaspiro[3.3]heptane-2-carbonyl]-2,5-diazaspiro[3.4]octan-6-one] yielded an IC50 of 0.0176 µM.

As to `N#Cc1cc(CC2CC3(C2)CN(C(=O)N2CC4(CCC(=O)N4)C2)C3)cc(C(F)(F)F)c1` [Example 217, 3-[[2-(6-oxo-2,5-diazaspiro[3.4]octane-2-carbonyl)-2-azaspiro[3.3]heptan-6-yl]methyl]-5-(trifluoromethyl)benzoni-trile], the IC50 is 0.00078 µM.

On to `O=C1CCC2(CN(C(=O)N3CC4(CCN(Cc5ccc(S(=O)(=O)C(F)(F)F)cc5)C4)C3)C2)N1` [Example 218, 2-[7-[[4-(trifluoromethylsulfonyl)phenyl]methyl]-2,7-diazaspiro[3.4]octane-2-carbonyl]-2,5-diazaspiro[3.4]octan-6-one], for which the half-maximal inhibitory concentration (IC50) turned out to be 0.0873 µM.

In turn, `N#Cc1ccc(CC2CC3(C2)CN(C(=O)N2CC4(CCC(=O)N4)C2)C3)cc1C(F)(F)F` [Example 219, 4-[[2-(6-oxo-2,5-diazaspiro[3.4]octane-2-carbonyl)-2-azaspiro[3.3]heptan-6-yl]methyl]-2-(trifluoromethyl)benzoni-trile] displayed an IC50 of 0.00043 µM.

`O=C1CCC2(CN(C(=O)N3CC4(CC(Cc5cc(C(F)(F)F)n[nH]5)C4)C3)C2)N1` [Example 220, 2-[6-[[3-(trifluoromethyl)-1H-pyrazol-5-yl]methyl]-2-azaspiro[3.3]heptane-2-carbonyl]-2,5-diazaspiro[3.4]octan-6-one] returned an IC50 of 0.00418 µM.

As to `O=C1CCC2(CN(C(=O)N3CC4(CC[C@H](Cc5ccc(S(=O)(=O)C(F)(F)F)cc5)C4)C3)C2)N1` [Example 221, 2-[(6R)-6-[[4-(trifluoromethylsulfonyl)phenyl]methyl]-2-azaspiro[3.4]octane-2-carbonyl]-2,5-diazaspiro[3.4]octan-6-one], the IC50 turned out to be 0.00131 µM.

The compound `O=C1CCC2(CN(C(=O)N3CC4(CC[C@@H](Cc5ccc(S(=O)(=O)C(F)(F)F)cc5)C4)C3)C2)N1` [Example 222, 2-[(6S)-6-[[4-(trifluoromethylsulfonyl)phenyl]methyl]-2-azaspiro[3.4]octane-2-carbonyl]-2,5-diazaspiro[3.4]octan-6-one] returned a concentration for half-maximal inhibition (IC50) of 0.00227 µM.

Compound `O=C1CCC2(CN(C(=O)N3CC4(CC[C@H](Cc5cccc(S(=O)(=O)C(F)(F)F)c5)C4)C3)C2)N1` [Example 223, 2-[(6R)-6-[[3-(trifluoromethylsulfonyl)phenyl]methyl]-2-azaspiro[3.4]octane-2-carbonyl]-2,5-diazaspiro[3.4]octan-6-one] came in with an IC50 of 0.00096 µM.

`O=C1CCC2(CN(C(=O)N3CC4(CC[C@@H](Cc5cccc(S(=O)(=O)C(F)(F)F)c5)C4)C3)C2)N1` [Example 224, 2-[(6S)-6-(3-triflylbenzyl)-2-azaspiro[3.4]octane-2-carbonyl]-2,5-diazaspiro[3.4]octan-6-one] came in with an IC50 of 0.00023 µM.

`O=C1CCC2(CN(C(=O)N3CC4(CC(Cn5ccc(C(F)(F)F)n5)C4)C3)C2)N1` [Example 225, 2-[6-[[3-(trifluoromethyl)pyrazol-1-yl]methyl]-2-azaspiro[3.3]heptane-2-carbonyl]-2,5-diazaspiro[3.4]octan-6-one] had an IC50 of 0.017 µM.

Compound `O=C1COCC2(CN(C(=O)N3CC4(CCC(Cc5cnc(C(F)(F)F)cn5)CC4)C3)C2)N1` [Example 226, 2-[7-[[5-(trifluoromethyl)pyrazin-2-yl]methyl]-2-azaspiro[3.5]nonane-2-carbonyl]-8-oxa-2,5-diazaspiro[3.5]nonan-6-one] showed an IC50 of 0.0459 µM.

Turning to `O=C1COCC2(CN(C(=O)N3CC4(CC(n5cnc(C6CC6)n5)C4)C3)C2)N1` [Example 227, 2-[6-(3-cyclopropyl-1,2,4-triazol-1-yl)-2-azaspiro[3.3]heptane-2-carbonyl]-8-oxa-2,5-diazaspiro[3.5]nonan-6-one], half-maximal inhibition (IC50) was put at 1.8 µM.

With `O=C1COCC2(CN(C(=O)N3CC4(CC(c5ccc(C(F)(F)F)cc5F)C4)C3)C2)N1` [Example 228], half-maximal inhibition (IC50) required 0.0184 µM.

`O=C1COCC2(CN(C(=O)N3CC4(CN(Cc5ccc(S(=O)(=O)C(F)(F)F)cc5)C4)C3)C2)N1` [Example 229, 2-[6-[[4-(trifluoromethylsulfonyl)phenyl]methyl]-2,6-diazaspiro[3.3]heptane-2-carbonyl]-8-oxa-2,5-diazaspiro[3.5]nonan-6-one] showed an IC50 of 0.0784 µM.

As to `O=C1COCC2(CN(C(=O)N3CC4(CC(Cn5cc(C(F)(F)F)cn5)C4)C3)C2)N1` [Example 230, 2-[6-[[4-(trifluoromethyl)pyrazol-1-yl]methyl]-2-azaspiro[3.3]heptane-2-carbonyl]-8-oxa-2,5-diazaspiro[3.5]nonan-6-one], the half-inhibitory concentration (IC50) was 0.059 µM.

As to `O=C1COCC2(CN(C(=O)N3CC4(CC(Cc5ccc(C(F)(F)F)nn5)C4)C3)C2)N1` [Example 231, 2-[6-[[6-(trifluoromethyl)pyrida-zin-3-yl]methyl]-2-azaspiro[3.3]heptane-2-carbonyl]-8-oxa-2,5-diazaspiro[3.5]nonan-6-one], inhibition was half-maximal at 0.255 µM (IC50).

The values above are taken from patent US20240383904A1, “HETEROCYCLIC COMPOUNDS” (Hoffmann-La Roche Inc., priority 2021, published 2024).
